Experimental findings from the supplement of paper PMC12463676, “Small-molecule dissolution of stress granules by redox modulation benefits ALS models” (Nature Chemical Biology, 2025) are described below.

Compound in assay [1]: NC(=O)CCCCC1CCSS1 [lipoamide]
Briefly: thermal stability z-score vs DMSO; higher = more thermally stabilized by treatment. As to conditions: HeLa, lipoamide concentration 100 µM. The method, then:
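Cellular thermal proteome profiling in HeLa cells. Cells were treated with 100 µM lipoamide for 1 h, with or without 1 mM arsenate for a further 1 h, then heated to ten temperatures (37-66.3 °C), and soluble protein was quantified by TMT mass spectrometry relative to 0.1% DMSO controls. The thermal stability score (sum of log2 fold changes minus the abundance score) was transformed to a z-score; mean of n = 3 experiments.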

Compound in assay [2]: O=[As]([O-])(O)O.[K+] [potassium arsenate]
The assay is described as above. As to conditions: HeLa; arsenate concentration 1 mM. The method, then: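 Cellular thermal proteome profiling in HeLa cells treated with 1 mM arsenate for 1 h (DMSO pretreatment), heated to ten temperatures (37-66.3 °C). Soluble protein was quantified by TMT mass spectrometry relative to DMSO controls; the thermal stability score was transformed to a z-score; mean of n = 3 experiments.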

The mark [3] stands for this setting: arsenate co-treatment: 1 mM arsenate 1 h.
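Further: each temperature applied for 3 min, abundance score taken as mean log2 fold change at the two lowest temperatures, z-score obtained by mean subtraction and division by SD.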

Sequence of UniProt P18615 (P18615 whole entry): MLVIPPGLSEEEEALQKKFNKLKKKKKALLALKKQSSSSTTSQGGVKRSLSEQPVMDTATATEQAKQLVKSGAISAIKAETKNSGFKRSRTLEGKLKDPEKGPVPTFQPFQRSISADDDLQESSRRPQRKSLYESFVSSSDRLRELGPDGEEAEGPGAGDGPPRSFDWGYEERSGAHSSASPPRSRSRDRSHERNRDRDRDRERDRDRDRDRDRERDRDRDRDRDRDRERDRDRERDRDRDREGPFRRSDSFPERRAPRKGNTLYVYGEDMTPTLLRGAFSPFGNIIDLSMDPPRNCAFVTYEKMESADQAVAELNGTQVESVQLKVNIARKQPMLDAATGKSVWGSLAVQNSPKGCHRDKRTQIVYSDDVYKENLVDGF
Sequence of UniProt Q49A26 (Q49A26 whole entry): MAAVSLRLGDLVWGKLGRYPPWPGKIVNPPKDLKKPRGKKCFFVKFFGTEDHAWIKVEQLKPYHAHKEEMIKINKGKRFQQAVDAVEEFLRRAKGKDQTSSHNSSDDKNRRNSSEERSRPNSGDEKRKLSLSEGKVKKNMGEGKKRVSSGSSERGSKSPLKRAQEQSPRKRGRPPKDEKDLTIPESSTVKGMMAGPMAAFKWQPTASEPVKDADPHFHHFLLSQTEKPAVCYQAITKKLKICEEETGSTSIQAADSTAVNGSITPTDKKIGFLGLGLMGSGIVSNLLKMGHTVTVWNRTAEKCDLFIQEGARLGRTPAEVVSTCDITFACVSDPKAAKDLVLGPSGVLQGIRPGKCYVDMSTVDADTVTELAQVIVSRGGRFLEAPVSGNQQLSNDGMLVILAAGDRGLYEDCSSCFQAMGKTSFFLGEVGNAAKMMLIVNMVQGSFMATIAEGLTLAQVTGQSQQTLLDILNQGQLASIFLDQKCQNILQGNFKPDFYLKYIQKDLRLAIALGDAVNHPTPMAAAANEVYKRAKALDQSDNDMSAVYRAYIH
Sequence of UniProt Q96T51 (Q96T51 whole entry): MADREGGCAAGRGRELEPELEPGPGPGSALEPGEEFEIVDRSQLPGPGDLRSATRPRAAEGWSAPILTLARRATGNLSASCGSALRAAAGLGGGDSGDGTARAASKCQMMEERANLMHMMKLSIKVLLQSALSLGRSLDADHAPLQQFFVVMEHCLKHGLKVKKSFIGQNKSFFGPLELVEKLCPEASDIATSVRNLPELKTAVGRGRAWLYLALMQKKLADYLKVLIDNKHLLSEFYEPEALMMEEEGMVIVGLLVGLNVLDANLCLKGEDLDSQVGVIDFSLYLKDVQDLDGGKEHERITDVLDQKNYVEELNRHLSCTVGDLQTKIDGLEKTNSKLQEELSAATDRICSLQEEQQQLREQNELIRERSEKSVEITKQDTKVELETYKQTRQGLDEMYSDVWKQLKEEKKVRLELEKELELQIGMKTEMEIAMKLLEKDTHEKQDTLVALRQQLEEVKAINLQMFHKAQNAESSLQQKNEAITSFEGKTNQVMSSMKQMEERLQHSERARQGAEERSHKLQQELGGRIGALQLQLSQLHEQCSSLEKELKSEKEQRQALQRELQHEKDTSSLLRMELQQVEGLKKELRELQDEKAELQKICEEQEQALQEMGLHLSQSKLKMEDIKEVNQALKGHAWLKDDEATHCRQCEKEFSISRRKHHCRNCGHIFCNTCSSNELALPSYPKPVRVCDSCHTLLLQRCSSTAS
Sequence of UniProt Q9BRT6 (Q9BRT6 whole entry): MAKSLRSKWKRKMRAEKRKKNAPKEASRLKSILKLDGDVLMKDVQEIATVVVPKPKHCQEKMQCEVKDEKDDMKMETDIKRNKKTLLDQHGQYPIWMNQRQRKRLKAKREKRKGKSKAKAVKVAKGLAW
Sequence of UniProt P43007 (P43007 whole entry): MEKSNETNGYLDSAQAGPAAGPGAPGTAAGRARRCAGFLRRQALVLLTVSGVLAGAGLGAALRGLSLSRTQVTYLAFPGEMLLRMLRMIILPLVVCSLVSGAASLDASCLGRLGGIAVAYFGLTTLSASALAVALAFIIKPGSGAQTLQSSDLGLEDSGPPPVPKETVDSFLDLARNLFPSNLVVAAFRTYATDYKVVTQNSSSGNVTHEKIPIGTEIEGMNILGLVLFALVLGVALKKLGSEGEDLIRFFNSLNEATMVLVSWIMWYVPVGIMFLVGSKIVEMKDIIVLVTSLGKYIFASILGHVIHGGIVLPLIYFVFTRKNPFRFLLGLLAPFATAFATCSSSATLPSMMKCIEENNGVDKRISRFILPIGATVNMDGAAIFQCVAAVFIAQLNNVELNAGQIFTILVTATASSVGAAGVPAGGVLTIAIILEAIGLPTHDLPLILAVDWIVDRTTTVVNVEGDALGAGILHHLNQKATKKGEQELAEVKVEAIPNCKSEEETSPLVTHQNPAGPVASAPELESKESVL
Sequence of UniProt Q9UI26 (Q9UI26 whole entry): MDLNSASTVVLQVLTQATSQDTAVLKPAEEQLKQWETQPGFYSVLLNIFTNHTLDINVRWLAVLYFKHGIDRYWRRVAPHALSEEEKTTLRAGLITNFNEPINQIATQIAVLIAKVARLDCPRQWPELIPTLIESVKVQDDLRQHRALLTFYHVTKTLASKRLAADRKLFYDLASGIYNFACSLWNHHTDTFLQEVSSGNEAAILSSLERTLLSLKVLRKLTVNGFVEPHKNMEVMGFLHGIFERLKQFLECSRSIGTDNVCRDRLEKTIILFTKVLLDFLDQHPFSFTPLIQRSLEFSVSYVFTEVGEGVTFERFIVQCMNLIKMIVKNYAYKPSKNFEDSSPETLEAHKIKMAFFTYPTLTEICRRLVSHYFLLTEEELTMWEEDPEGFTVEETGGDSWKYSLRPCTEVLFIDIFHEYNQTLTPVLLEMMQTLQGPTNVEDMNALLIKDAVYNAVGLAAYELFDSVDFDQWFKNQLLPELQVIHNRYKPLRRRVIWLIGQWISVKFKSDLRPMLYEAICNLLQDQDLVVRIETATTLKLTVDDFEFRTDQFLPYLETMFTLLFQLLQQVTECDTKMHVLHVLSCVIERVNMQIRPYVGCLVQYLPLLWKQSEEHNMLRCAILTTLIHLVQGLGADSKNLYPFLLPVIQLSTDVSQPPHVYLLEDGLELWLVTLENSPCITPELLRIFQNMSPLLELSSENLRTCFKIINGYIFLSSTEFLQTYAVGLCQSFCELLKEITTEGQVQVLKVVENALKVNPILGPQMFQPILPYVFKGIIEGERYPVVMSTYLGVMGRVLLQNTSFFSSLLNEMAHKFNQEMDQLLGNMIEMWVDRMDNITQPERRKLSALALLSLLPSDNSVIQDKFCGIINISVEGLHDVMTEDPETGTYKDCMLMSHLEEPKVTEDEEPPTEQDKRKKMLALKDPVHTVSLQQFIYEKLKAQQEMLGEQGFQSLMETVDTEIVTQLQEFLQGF
Sequence of UniProt Q5VTL8 (Q5VTL8 whole entry): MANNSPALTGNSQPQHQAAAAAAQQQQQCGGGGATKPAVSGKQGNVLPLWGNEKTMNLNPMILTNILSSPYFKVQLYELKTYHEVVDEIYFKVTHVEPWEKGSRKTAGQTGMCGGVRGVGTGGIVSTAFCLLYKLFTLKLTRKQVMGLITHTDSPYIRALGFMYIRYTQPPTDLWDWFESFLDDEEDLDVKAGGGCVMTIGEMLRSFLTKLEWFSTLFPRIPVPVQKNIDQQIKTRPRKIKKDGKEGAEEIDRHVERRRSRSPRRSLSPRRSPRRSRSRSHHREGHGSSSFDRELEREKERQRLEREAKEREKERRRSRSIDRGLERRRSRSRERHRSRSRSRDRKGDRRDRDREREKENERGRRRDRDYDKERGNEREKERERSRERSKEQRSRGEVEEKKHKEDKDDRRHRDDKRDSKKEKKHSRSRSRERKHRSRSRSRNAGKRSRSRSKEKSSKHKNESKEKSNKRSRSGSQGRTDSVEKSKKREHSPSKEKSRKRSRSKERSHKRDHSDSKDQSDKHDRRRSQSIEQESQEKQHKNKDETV
Sequence of UniProt Q96B70 (Q96B70 whole entry): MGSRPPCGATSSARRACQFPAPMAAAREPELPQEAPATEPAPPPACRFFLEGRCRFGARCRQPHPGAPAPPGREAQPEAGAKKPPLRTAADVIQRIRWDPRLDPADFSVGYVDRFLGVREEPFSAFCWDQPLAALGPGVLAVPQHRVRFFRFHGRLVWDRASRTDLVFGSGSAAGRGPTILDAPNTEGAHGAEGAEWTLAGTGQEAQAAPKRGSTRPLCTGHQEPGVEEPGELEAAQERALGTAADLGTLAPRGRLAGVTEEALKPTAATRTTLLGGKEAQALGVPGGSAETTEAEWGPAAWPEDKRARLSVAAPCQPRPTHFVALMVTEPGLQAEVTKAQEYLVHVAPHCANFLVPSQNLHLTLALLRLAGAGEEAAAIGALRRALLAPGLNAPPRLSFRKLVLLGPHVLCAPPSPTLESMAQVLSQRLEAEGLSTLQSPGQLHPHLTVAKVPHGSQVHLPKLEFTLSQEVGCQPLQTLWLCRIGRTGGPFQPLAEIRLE
Sequence of UniProt Q9NVF7 (Q9NVF7 whole entry): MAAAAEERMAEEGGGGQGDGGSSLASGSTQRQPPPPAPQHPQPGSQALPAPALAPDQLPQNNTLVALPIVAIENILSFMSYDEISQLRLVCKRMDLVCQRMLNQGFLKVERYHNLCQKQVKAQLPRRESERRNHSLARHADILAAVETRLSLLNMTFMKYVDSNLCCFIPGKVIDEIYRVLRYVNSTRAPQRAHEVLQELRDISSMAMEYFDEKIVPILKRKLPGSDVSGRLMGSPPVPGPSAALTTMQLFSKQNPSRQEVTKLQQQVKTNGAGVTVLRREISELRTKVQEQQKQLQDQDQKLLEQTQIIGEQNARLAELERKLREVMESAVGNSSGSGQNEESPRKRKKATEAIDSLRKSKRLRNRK
Sequence of UniProt P23528 (P23528 whole entry): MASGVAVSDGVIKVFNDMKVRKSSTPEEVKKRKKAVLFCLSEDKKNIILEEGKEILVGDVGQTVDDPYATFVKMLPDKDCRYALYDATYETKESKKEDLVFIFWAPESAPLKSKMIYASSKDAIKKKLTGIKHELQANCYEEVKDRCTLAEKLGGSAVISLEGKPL

For the target CYTH1 (UniProt Q15438), the values for the thermal stability z-score in assay [1] (setting [3]), in assay [1] (arsenate co-treatment: none) and in assay [2] were -0.178, 0.00951 and 0.0222, respectively.
For RNF31 (UniProt Q96EP0), in that order: -0.101, 0.0489 and -0.255.
The like results for ACSS2 (UniProt Q9NR19) were, in that order, 0.198, 0.512 and -0.517.
The like results for SLC1A4 (UniProt P43007) were, in that order, -0.807, -0.485 and -0.588.
With CYBA (UniProt P13498), the results for the thermal stability z-score in assay [1] (setting [3]), in assay [1] (arsenate co-treatment: none) and in assay [2] were 0.0672, 0.232 and 0.653, respectively.
Consider NELFE (UniProt P18615), for which the thermal stability z-score is 0.0818 in assay [1] (setting [3]), 0.467 in assay [1] (arsenate co-treatment: none) and 0.293 in assay [2].
Consider SIPA1L2 (UniProt Q9P2F8), for which the figures for the thermal stability z-score in assay [1] (setting [3]), in assay [1] (arsenate co-treatment: none) and in assay [2] were 0.197, 0.0316 and -0.149, respectively.
For SLC29A1 (UniProt Q99808), in that order: 0.272, 0.818 and 0.277.
Turning to PRPF38B (UniProt Q5VTL8), the thermal stability z-score was -0.807 in assay [1] (setting [3]), -0.366 in assay [1] (arsenate co-treatment: none) and -0.358 in assay [2].
EIF4G1 (UniProt Q04637): the thermal stability z-score was -0.164 in assay [1] (setting [3]), -0.0562 in assay [1] (arsenate co-treatment: none) and -0.0263 in assay [2].
For the target SIDT2 (UniProt Q8NBJ9), the thermal stability z-score in assay [1] (setting [3]) is -1.33; in assay [1] (arsenate co-treatment: none), -1.46; in assay [2], -1.91.
The like results for TRADD (UniProt Q15628) were, in that order, 0.0371, 0.0442 and -0.497.
The like results for SLC16A1 (UniProt P53985) were, in that order, 0.774, 1.02 and 0.385.
For HNRNPDL (UniProt O14979), in that order: 0.895, 0.34 and -1.85.
Turning to SLC25A28 (UniProt Q96A46), the figures for the thermal stability z-score in assay [1] (setting [3]), in assay [1] (arsenate co-treatment: none) and in assay [2] were 0.65, 0.529 and 1.81, respectively.
The like results for IPO11 (UniProt Q9UI26) were, in that order, -0.322, -0.104 and -0.0713.
Take OSBP (UniProt P22059): the thermal stability z-score is 0.983 in assay [1] (setting [3]), 0.414 in assay [1] (arsenate co-treatment: none) and -1.62 in assay [2].
For KCTD12 (UniProt Q96CX2), in that order: 0.867, 0.7 and 1.37.
As for LIMCH1 (UniProt Q9UPQ0), the thermal stability z-score in assay [1] (setting [3]) is 0.0623; in assay [1] (arsenate co-treatment: none) it was 0.151; in assay [2] it was 0.542.
Take MAP7D1 (UniProt Q3KQU3): the values for the thermal stability z-score in assay [1] (setting [3]), in assay [1] (arsenate co-treatment: none) and in assay [2] were 0.172, -0.0726 and -0.702, respectively.
The like results for PDCD6 (UniProt O75340) were, in that order, 1.77, 0.818 and 0.623.
For SMAD4 (UniProt Q13485), the thermal stability z-score was -0.233 in assay [1] (setting [3]), -0.519 in assay [1] (arsenate co-treatment: none) and -0.746 in assay [2].
The like results for KIF15 (UniProt Q9NS87) were, in that order, -0.328, -0.386 and 0.921.
The like results for GLYR1 (UniProt Q49A26) were, in that order, 0.0933, -0.0315 and -0.145.
For CFL1 (UniProt P23528), in that order: 0.501, 0.449 and -0.362.
Regarding KBTBD2 (UniProt Q8IY47), the values for the thermal stability z-score in assay [1] (setting [3]), in assay [1] (arsenate co-treatment: none) and in assay [2] were -0.0161, -0.0919 and -0.0698, respectively.
The like results for IBTK (UniProt Q9P2D0) were, in that order, -0.734, -0.319 and -0.576.
For PRG4 (UniProt Q92954), in that order: -2.2, -2.18 and 0.248.
The like results for TSC22D2 (UniProt O75157) were, in that order, 1.54, 0.0633 and 1.16.
Take ABI1 (UniProt Q8IZP0): the thermal stability z-score in assay [1] (setting [3]) was -0.715; in assay [1] (arsenate co-treatment: none), -0.452; in assay [2], -0.656.
Take TEX30 (UniProt Q5JUR7): the thermal stability z-score in assay [1] (setting [3]) is 0.373; in assay [1] (arsenate co-treatment: none) it was -0.174; in assay [2], -0.411.
Regarding RUFY1 (UniProt Q96T51), the thermal stability z-score is -0.702 in assay [1] (setting [3]), -0.00916 in assay [1] (arsenate co-treatment: none) and 0.39 in assay [2].
The like results for DOCK7 (UniProt Q96N67) were, in that order, -0.23, 0.0599 and 0.962.
In the case of SAMD4B (UniProt Q5PRF9), the thermal stability z-score in assay [1] (setting [3]) is 0.14; in assay [1] (arsenate co-treatment: none), 0.116; in assay [2] it was -0.143.
The like results for LENG9 (UniProt Q96B70) were, in that order, -0.216, -0.193 and -0.307.
For PIK3C2B (UniProt O00750), in that order: 0.468, 0.832 and 0.971.
For FKBP10 (UniProt Q96AY3), in that order: -3.58, -2.95 and 0.321.
Turning to RRP15 (UniProt Q9Y3B9), the thermal stability z-score is -0.279 in assay [1] (setting [3]), -0.438 in assay [1] (arsenate co-treatment: none) and -0.817 in assay [2].
For LLPH (UniProt Q9BRT6), in that order: -1.21, -1.15 and -2.48.
The like results for BECN1 (UniProt Q14457) were, in that order, -0.39, -0.238 and -0.408.
For RPN1 (UniProt P04843), in that order: -1.47, -0.974 and 0.346.
Turning to FBXO28 (UniProt Q9NVF7), the thermal stability z-score in assay [1] (setting [3]) is 0.0993; in assay [1] (arsenate co-treatment: none) it was -0.125; in assay [2], -0.115.
